From paper PMC8150775, “Repositioning Azelnidipine as a Dual Inhibitor Targeting CD47/SIRPα and TIGIT/PVR Pathways for Cancer Immuno-Therapy” (Biomolecules, 2021)

Assays:
MC38 cells = test: Phagocytosis assay, BMDM co-cultured with GFP+ MC38 cells; format: cell-based, mouse; details: 20 μM, 4 h
Method: (§1) Bone marrow-derived macrophage (BMDM) cells were isolated from C57BL/6 or BALB/c mice and induced with 20 ng/mL of GM-CSF (Peprotech, Rocky Hill, CT, USA) for 7 days. Meanwhile, the medium was replaced with fresh medium containing the cytokine and the adherent cells were harvested. Phagocytosis assays were performed by a co-culture of the BMDM macrophages with carboxyfluorescein succinimidyl ester-labeled (CFSE^+) or GFP^+ tumor cells at a ratio of 1:4 in a serum-free medium at 37 °C for 4 h, in low-attachment 96-well tissue culture plates (Corning, New York, NY, USA). The cells were harvested and the macrophages were identified by a flow cytometry using anti-F4/80 antibody (eBioscience, San Diego, CA, USA). Then, 7-AAD (eBioscience) was used to exclude the dead cells. The effects of azelnidipine (20 μM) on phagocytosis by BMDM cells were tested, and the anti-CD47 antibody (clone: miap301) were used as the positive control. Phagocytosis rate was determined with the formulation: F4/80^+GFP^+ or F4/80^+CFSE^+ cells/ Total F4/80^+ cells.
(§2) Figure 4 Azelnidipine enhances macrophage mediated phagocytosis of the tumor cells. The effects of the azelnidipine on the phagocytosis of the macrophages were tested by a co-culture of the tumor cells and BMDM cell derived from C57BL/6 or BALB/c mice. […] GFP^+ or CFSE^+ BMDMs were detected by a flow cytometry. […]

TIGIT/PVR interaction = target: T1, TIGIT/PVR interaction (Homo sapiens, UniProt P15151); test: Blocking assay by flow cytometry, preliminary screening at a single concentration, TIGIT/PVR; format: binding; details: preliminary test, single concentration of 100 μM
T1 construct: purchased ACRO Biosystem CD5-H82F6; host or cells: CHOK1-TIGIT cells (lenti-viral transfection)
T1 sequence (P15151 21-343 limits assumed): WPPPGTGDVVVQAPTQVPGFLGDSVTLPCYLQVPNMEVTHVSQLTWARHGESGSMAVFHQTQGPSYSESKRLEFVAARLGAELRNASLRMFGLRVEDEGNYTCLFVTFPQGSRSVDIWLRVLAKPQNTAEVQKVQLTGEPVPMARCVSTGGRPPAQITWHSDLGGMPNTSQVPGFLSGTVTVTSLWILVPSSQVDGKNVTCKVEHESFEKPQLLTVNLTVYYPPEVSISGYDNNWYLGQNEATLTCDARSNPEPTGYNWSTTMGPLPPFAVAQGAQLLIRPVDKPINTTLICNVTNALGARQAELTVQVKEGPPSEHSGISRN
Method: (§3) The abilities of small molecule inhibitors (SMIs) (purchased from TargetMol, Shanghai, China) to block the binding of SIRPα protein to CHOK1-CD47 cells or PVR protein to CHOK1-TIGIT cells were determined by flow cytometry, as previously reported. The SMIs at indicated concentrations were incubated with Fc-tagged SIRPα or PVR protein for 30 min at 4°C, followed by incubating with the indicated cells for another 30 min. Human SIRPα protein (SIA-H5251, ACRO Biosystem, Beijing, China), mouse SIRPα protein (SIA-M5258, ACRO Biosystem, Beijing, China), human PVR protein (CD5-H82F6, ACRO Biosystem, Beijing, China), and mouse PVR protein (50259-M03H, Sino Biological, Beijing, China) were used. PE-conjugated anti-human IgG antibody was used to detect the Fc protein bind to cells. Cells incubated with the Fc proteins and anti-human IgG antibody without the SMIs serve as the positive control. The mean fluorescent intensity (MFI) of each sample was detected and recorded by a flow cytometry. The blocking efficacy of the SMIs was calculated as the equation: (MFI of the positive control-MFI of the SMI)/MFI of the positive control × 100%.
(§4) The small molecule inhibitor could not only bind to the target; most importantly, it should interfere with the receptor–ligand interactions. Subsequently, the candidate inhibitors were screened by the blocking assays with the established CD47 and TIGIT over-expressing cell lines. The test was initialed with a preliminary screening of the candidates with a single concentration (Figure 2D). Generally, the SMI blocking efficacy to the CD47/SIRPα interaction was much higher than that of the TIGIT/PVR. […] Therefore, the SMI-F11 and SMI-F17 may exert dual blocking effects in the CD47/SIRPα and TIGIT/PVR pathways. Blocking assays with a concentration gradient of the SMI were further performed to validate the preliminary screening. […] The similar blocking assays with the mouse CD47 and TIGIT over-expressing cells were also performed. […] Considering that most pairs of the immune checkpoints interact with the corresponding ligand in parallel forms, the blocking assays with the PD-1/PD-L1 interaction system was also conducted to test the specificity.

B16-OVA cells = test: Phagocytosis assay, BMDM co-cultured with GFP+ B16-OVA cells; format: cell-based, mouse; details: 20 μM, 4 h
Method: as §1, §2

CT26 cells = test: Phagocytosis assay, BMDM co-cultured with CFSE-labeled CT26 cells; format: cell-based, mouse; details: 20 μM, 4 h
Method: as §1, §2

CD47/SIRPα interaction = target: T2, CD47/SIRPα interaction (Homo sapiens, UniProt P78324); test: Blocking assay by flow cytometry, preliminary screening at a single concentration, CD47/SIRPα; format: binding; details: preliminary test, single concentration of 100 μM
T2 construct: purchased ACRO Biosystem SIA-H5251; host or cells: CHOK1-CD47 cells (lenti-viral transfection)
Method: as §3, §4

[1] = test system: peripheral blood mononuclear cells; design: method as in PMID 29398679, PMID 20606305; details: cited from earlier work
IL-12 p40 = test system: IL-12 p40; design: method as in PMID 19438591; details: cited from earlier work

T2 sequence (P78324 31-370 limits assumed): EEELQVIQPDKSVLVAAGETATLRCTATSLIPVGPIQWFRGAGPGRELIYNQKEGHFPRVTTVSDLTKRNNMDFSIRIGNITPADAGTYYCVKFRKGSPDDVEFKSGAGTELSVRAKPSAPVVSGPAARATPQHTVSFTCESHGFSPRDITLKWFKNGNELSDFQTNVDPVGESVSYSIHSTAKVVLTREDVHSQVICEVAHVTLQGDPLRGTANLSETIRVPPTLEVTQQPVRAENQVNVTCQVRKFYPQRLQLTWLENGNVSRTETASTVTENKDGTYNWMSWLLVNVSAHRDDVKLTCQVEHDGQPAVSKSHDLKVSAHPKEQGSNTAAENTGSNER

activity in interfering with the TIGIT/PVR interaction (TIGIT/PVR interaction): better activities
blocking efficacy, CD47/SIRPα interaction (CD47/SIRPα interaction): more than 50%
SMILES: CC1=C(C(=O)OC(C)C)C(c2cccc([N+](=O)[O-])c2)C(C(=O)OC2CN(C(c3ccccc3)c3ccccc3)C2)=C(N)N1 (stereo not shown) [Azelnidipine]
phagocytosis of MC38 cells by BMDM cells (MC38 cells): significantly enhance
phagocytosis of B16-OVA cells by BMDM cells (B16-OVA cells): significantly enhance
phagocytosis of CT26 cells by BMDM cells (CT26 cells): significantly enhance
cytokine secretion of peripheral blood mononuclear cells [1]: inhibit
secretion of IL-12 p40 mediated by immune complex (IL-12 p40): enhance the secretion of IL-12 p40
